Patent EP0943615A1, “1,4-DIHYDROPYRIDINE DERIVATIVES” (Nikken Chemicals Company, Limited, priority 1996, dated 1998)
“And” between values parts separate entries of the source, which are not always exact repeats. Equal values may be shown once. Read-outs that look alike come from different tables or passages of the source.

Legend:
[1] = tested on: VCR resistant murine leukemia (P388/VCR) cells; test: In vivo test: overcoming resistance to vincristine in VCR resistant murine leukemia cell bearing mice; set-up: species or system CDF1 male mice; conditions: P388/VCR bearing CDF1 mice, VCR 100 µg/kg alone or with compound 100 mg/kg, intraperitoneally for 5 days; for Effect of overcoming resistance T/V (%): T/C of combination over T/C of VCR alone x 100; for Rate of prolongation of life T/C (%): with respect to controls
Description: 10^6 VCR resistant murine leukemia (P388/VCR) cells were transplanted intraperitoneally into groups of six CDF1 male mice, then the compound of the present invention (100 mg/kg) and VCR (100 µg/kg) were administered intraperitoneally for 5 days. […] Effect of overcoming resistance to anti-cancer drug (T/V) % = [(Rate of prolongation of life using VCR and present compound (T/C))/(Rate of prolongation of life using VCR alone (T/C))] x 100 [formula]

[2] = tested on: VJ-300 cells; test: In vitro test of action suppressing proliferation of cancer cells, combined administration of vincristine, resistant cells; format: cell-based, Human; conditions: VCR alone or VCR + test compound 1 µg/ml, LD50 of VCR relative to VCR alone in KB cells = 1
Description: (§1) As the incubation solutions, use was made of 10% fetal calf serum (Flow Laboratories) and Eagle MEM medium (Nissui Seiyaku) containing 0.292 mg/ml of L-glutamine (Flow Laboratories). The tests of the action for overcoming resistance to anti-cancer drugs or action for increasing the effect of the anti-cancer drug with the combined administration of the anti-cancer drug doxorubicin (i.e., adriamycin, ADM) and the test compound were performed as follows:
(§2) The test cells were suspended in incubation solutions and adjusted to a cell density of about 200 cells/ml. The cell suspensions were injected in 2 ml amounts into petri dishes and were incubated in a CO2 gas incubator (5% CO2, 95% air) at 37°C for 24 hours. Then, 5 µl of a predetermined concentration of the aqueous ADM solution and a predetermined concentration of a DMSO solution of the test compound were added, then the incubation was continued for a further 7 days. After the end of the incubation, the result was immobilized with methanol, Giemsa stained and measured for the number of colonies per dish. The results were used to prepare a volume-reaction curve. […] The results are shown in Table 8 to Table 10 using the concentration of LD50 of ADM in the ADM alone group by KB cells as the resistance degree 1 and calculating the resistances of the following LD50 concentrations as relative ratios.
The same method as in Test Example 1 was used to test the action of vincristine (VCR) on anti-cancer drugs, prepare a volume-reaction curve, and calculate the resistances.

[3] = tested on: VJ-300 cells; test: In vitro test of action suppressing proliferation of cancer cells, combined administration of doxorubicin (colony formation), resistant cells; format: cell-based, Human; conditions: ADM alone or ADM + test compound 1 µg/ml, LD50 of ADM relative to ADM alone in KB cells = 1, 7 days incubation, colony count
Description: as §1, with “Human rhinopharynx cancer derived KB cells (i.e., sensitive cells) and their multi-drug resistant clone VJ-300 cells (i.e., resistant cells) were used as the test cells. As” for “As”
as §2, with “ratios. […]” for “ratios.”

[4] = Acute toxicity test; conditions: mouse, in vivo, ip; ddY male mice, intraperitoneally, suspended in 0.5% CMC-Na with 0.1% Tween 80, observed up until 7 days
Description: • Animals used: ddY male mice (SLC Japan), 4-5 weeks old, three to five mice per group. • Test method: The compound of the present invention was suspended in 0.5% sodium carboxymethylcellulose (CMC-Na) containing 0.1% Tween 80. It was administered to the mice intraperitoneally in amounts from 1000 mg/kg to 250 mg/kg in groups of three to five mice until no more deaths were observed. The survival of the animals was observed up until 7 days after administration.

[5] = tested on: thoracic aorta of the rat; test: Action easing KCl contraction in rat arteries (aortic ring, Magnus tube); conditions: read-out: IC50 value (x 10^-6 M)
[6] = 50% inhibitory concentration of hyperpotassium contraction, 50mM potassium chloride, rat thoracic aorta ring, cumulative addition

| SMILES | Average days of survival [1] | Effect of overcoming resistance T/V (%) [1] [%] | Rate of prolongation of life T/C (%) [1] [%] | Degree of resistance for VCR VJ-300 [2] | Degree of resistance for ADM VJ-300 [3] | LD50 at 168 h [4] [mg/kg] | Average days of survival ([1]; 100 mg/kg) | Rate of prolongation of life T/C (%) ([1]; 100 mg/kg) | IC50 [5, 6] [µM] | IC50 ([5]; Rattus norvegicus) [µM] |
| --- | --- | --- | --- | --- | --- | --- | --- | --- | --- | --- |
| CCCCCC1C(C(=O)OCCCc2cccnc2)=C(C)NC(c2ccc(-n3c(C)nc4ncccc43)cc2)=C1C(=O)OCC (stereo not shown) [Compound 3, 6-methyl-2-[4-(2-methylimidazo[4,5-b]pyridin-1-yl)phenyl]-4-pentyl-1,4-dihydropyridin-3,5-dicarboxylate 3-ethylester, 5-[3-(3-pyridyl)propyl]ester] | 15.0 | 133 | 127 | 7.1 | 1.2 |  |  |  |  |  |
| CCCCCC1C(C(=O)OCCCc2cccnc2)=C(C)NC(c2cccnc2)=C1C(=O)OCC (stereo not shown) [Compound 16, 6-methyl-4-pentyl-2-(3-pyridyl)-1,4-dihydropyridin-3,5-dicarboxylate 3-ethylester, 5-[3-(3-pyridyl)propyl]ester] | 16.2 | 143 | 137 |  | 3.0 | > 1000 |  |  |  |  |
| CC[C@]1(O)C[C@H]2CN(CCc3c([nH]c4ccccc34)[C@@](C(=O)OC)(c3cc4c(cc3OC)N(C=O)[C@H]3[C@@](O)(C(=O)OC)[C@H](OC(C)=O)[C@]5(CC)C=CCN6CC[C@]43[C@@H]65)C2)C1 [VCR, vincristine, reference compound] |  | 100 |  | 483 - 952 |  |  | 11.3 and 9.8 and 12.3 | 96% and 103% and 109% |  |  |
| CCOC(=O)C1=C(c2ccc(-n3c(C)nc4ncccc43)cc2)NC(C)=C(C(=O)OCCCc2cccnc2)C1C(C)C (stereo not shown) [Compound 1, 4-isopropyl-6-methyl-2-[4-(2-methylimidazo[4,5-b]pyridin-1-yl)phenyl]-1,4-dihydropyridin-3,5-dicarboxylate 3-ethylester, 5-[3-(3-pyridyl)propyl]ester] | 12.8 | 113 | 108 |  | 2.4 | > 1000 |  |  |  |  |
| COC(=O)C1=C(C)NC(C)=C(C(=O)OCCN(C)Cc2ccccc2)C1c1cccc([N+](=O)[O-])c1 (stereo not shown) [Nicardipine] |  |  |  |  |  |  |  |  | 0.26 |  |
| CCOC(=O)C1=C(c2ccc(-n3c(C)nc4cnccc43)cc2)NC(C)=C(C(=O)OCCCc2cccnc2)C1C(C)C (stereo not shown) [Compound 2, 4-isopronyl-6-methyl-2-[4-(2-methylimidazo[4,5-c]pyridin-1-yl)phenyl]-1,4-dihydronyridin-3,5-dicarboxylate 3-ethylester, 5-[3-(3-pyridyl)propyl]ester] |  |  |  | 9.6 | 2.7 | > 1000 |  |  | > 30 |  |
| CCOC(=O)C1=C(c2ccc(-n3ccnc3)cc2)NC(C)=C(C(=O)OC/C=C/c2cccnc2)C1/C=C/c1ccccc1 (stereo not shown) [Compound 33, 2-[4-(1-imidazolyl)phenyl]-6-methyl-4-[(E)-2-phenylethenyl]-1,4-dihydropyridin-3,5-dicarboxylate 3-ethylester, 5-[(E)-3-(3-pyridyl)-2-propenyl)ester] |  |  |  |  | 1.4 | > 1000 |  |  |  |  |
| CCCCCC1C(C(=O)OC/C=C/c2cccnc2)=C(C)NC(c2ccc(-n3c(C)nc4cnccc43)cc2)=C1C(=O)OCC (stereo not shown) [Compound 23, 6-methyl-2-[4-(2-methylimidazo[4,5-c]pyridin-1-yl)phenyl]-4-pentyl-1,4-dihydropyridin-3,5-dicarboxylate 3-ethylester, 5-[(E)-3-(3-pyridyl)-2-propenyl]ester] | 13.5 | 138 | 142 |  | 1.2 | > 1000 |  |  |  |  |
| CCOC(=O)C1=C(c2ccc(-n3c(C)nc4cnccc43)cc2)NC(C)=C(C(=O)OC/C=C/c2cccnc2)C1CCc1ccccc1 (stereo not shown) [Compound 24, 6-methyl-2-[4-(2-methylimidazo[4,5-c]pyridin-1-yl)phenyl]-4-(2-phenyl)ethyl-1,4-dihydropyridin-3,5-dicarboxylate 3-ethylester, 5-[(E)-3-(3-pyridyl)-2-propenyl]ester] | 13.3 | 136 | 140 |  | 1.1 | > 1000 |  |  |  |  |
| CCOC(=O)C1=C(c2ccc(-n3ccnc3)cc2)NC(C)=C(C(=O)OCCCc2cccnc2)C1/C=C/c1ccccc1 (stereo not shown) [Compound 43, 2-[4-(1-imidazolyl)phenyl]-6-methyl-4-[(E)-2-phenylethenyl]-1,4-dihydropyridin-3,5-dicarboxylate 3-ethylester, 5-[3-(3-pyridyl)propyl]ester] | 13.4 | 137 | 141 |  | 1.4 |  |  |  |  |  |
| CCCCCC1C(C(=O)OCCCc2cccnc2)=C(C)NC(c2ccccc2)=C1C(=O)OCC (stereo not shown) [Compound 15, 6-methyl-4-pentyl-2-phenyl-1,4-dihydropyridin-3,5-dicarboxylate 3-ethylester, 5-[3-(3-pyridyl)propyl]ester] | 15.7 | 128 | 139 | 6.5 | 3.2 |  |  |  |  |  |
| COc1ccc(CCN(C)CCCC(C#N)(c2ccc(OC)c(OC)c2)C(C)C)cc1OC (stereo not shown) [Verapamil] |  |  |  |  |  |  |  |  |  | 1.43 |
